Laboratory results from paper PMC6265452, “An auxin controls bacterial antibiotics production” (Nucleic Acids Research, 2018).
Like-named read-outs stand apart in the source and are kept apart here.

What was measured:
AdmX [1] = target: T1, AdmX (Serratia plymuthica, UniProt P0DV33); assay: ITC (also DSF shift of […]°C, in vitro transcription repression); type: binding
AdmX [2] = target: T1, AdmX; assay: as above; type: binding; remark: listed apart in the source

T1 sequence (P0DV33 whole entry): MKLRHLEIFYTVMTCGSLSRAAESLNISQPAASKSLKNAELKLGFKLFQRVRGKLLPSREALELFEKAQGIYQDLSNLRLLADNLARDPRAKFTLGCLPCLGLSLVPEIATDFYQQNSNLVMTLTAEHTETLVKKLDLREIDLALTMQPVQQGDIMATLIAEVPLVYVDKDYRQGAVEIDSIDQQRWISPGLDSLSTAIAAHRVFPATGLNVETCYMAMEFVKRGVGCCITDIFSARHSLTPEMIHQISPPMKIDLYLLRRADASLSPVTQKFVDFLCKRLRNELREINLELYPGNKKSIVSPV

`O=C(O)Cc1c[nH]c2ccccc12` [IAA, indole-3-acetic acid] gave a Kd (AdmX [1]) of 60.9 µM.

`O=C(O)C(=O)Cc1c[nH]c2ccccc12` [IPA, indole-3-pyruvic acid] showed a Kd (AdmX [2]) of 1.1 µM.
